The source made the active and inactive calls.
How the values were obtained:
Cytochrome P450 3A4 = Cytochrome P450 3A4 (Homo sapiens, UniProt P08684);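 also: CYP3A4 tested as one member of a cytochrome P450 panel screen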
Cytochrome P450 2C9 = Cytochrome P450 2C9 (Homo sapiens, UniProt P11712)
[1] = target: T1, Heat shock factor protein 1 (Mus musculus, UniProt P38532); assay: HSF1 potentiators in luciferase reporter cells, confirmation, cell-based, NIH3T3, luminescence, dose retest (AID 435004); format: functional;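 also: stress induced by proteasome inhibitor MG132 added 30 min after compound; luciferase reporter driven by HSF1 response element in NIH3T3 cells; actives raise luminescence as potentiators of the MG132 stress response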
T1 sequence (P38532 whole entry): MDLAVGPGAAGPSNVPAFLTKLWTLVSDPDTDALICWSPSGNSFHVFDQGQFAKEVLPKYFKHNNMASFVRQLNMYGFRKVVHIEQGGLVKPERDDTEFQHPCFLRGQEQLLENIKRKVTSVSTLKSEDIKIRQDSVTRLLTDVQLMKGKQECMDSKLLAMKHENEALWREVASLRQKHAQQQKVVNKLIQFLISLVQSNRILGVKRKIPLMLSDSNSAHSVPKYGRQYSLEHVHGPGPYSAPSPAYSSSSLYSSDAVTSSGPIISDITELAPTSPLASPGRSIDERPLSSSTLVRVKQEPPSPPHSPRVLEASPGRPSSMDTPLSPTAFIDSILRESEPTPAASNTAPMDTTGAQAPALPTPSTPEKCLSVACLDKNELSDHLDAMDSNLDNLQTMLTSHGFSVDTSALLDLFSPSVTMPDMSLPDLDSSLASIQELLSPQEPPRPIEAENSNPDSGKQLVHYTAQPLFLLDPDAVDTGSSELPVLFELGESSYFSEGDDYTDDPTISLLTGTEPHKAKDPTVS

Streptokinase A = target: T2, Streptokinase A (Streptococcus pyogenes serotype M1, UniProt P10520); assay: S. pyogenes streptokinase expression inhibitors, potency, dose response, plasminogen activation absorbance, OD405 (AID 1914); format: functional, Streptococcus pyogenes M1 GAS;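 also: secreted streptokinase activity via plasminogen activation per viability signal from cell pellet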
T2 sequence (P10520 whole entry): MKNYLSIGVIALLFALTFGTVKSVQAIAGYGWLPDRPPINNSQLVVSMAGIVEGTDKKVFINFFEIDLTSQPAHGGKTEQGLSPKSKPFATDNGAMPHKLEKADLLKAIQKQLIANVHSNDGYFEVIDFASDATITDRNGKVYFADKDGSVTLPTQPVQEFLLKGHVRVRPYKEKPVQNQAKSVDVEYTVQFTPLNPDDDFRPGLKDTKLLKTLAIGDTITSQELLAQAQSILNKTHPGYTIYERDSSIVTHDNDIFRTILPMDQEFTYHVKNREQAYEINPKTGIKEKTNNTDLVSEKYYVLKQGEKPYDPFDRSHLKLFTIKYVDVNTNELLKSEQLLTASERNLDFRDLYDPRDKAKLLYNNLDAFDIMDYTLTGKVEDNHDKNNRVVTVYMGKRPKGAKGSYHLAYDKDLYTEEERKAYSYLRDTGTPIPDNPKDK

[2] = target: T3, Zinc finger protein mex-5 (Caenorhabditis elegans, UniProt Q9XUB2); assay: MEX-5/TCR-2 RNA interaction inhibitors, dose response, biochemical, C. elegans, fluorescence polarization (AID 1960)
T3 sequence (Q9XUB2 whole entry): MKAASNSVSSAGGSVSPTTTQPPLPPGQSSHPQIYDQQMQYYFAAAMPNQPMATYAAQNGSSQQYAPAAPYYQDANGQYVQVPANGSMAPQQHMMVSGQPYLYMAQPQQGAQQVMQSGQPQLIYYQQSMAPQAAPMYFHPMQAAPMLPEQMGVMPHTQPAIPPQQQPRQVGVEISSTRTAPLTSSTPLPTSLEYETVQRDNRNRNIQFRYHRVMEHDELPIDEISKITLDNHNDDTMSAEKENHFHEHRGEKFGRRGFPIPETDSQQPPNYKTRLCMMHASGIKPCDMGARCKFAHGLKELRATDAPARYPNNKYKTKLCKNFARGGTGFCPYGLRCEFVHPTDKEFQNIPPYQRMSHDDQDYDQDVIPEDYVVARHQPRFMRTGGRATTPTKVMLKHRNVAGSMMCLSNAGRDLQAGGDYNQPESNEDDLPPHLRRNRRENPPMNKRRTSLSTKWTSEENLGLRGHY

Streptococcus = assay: Group A Streptococcus viability loss, dose response, counter-screen for streptokinase expression inhibitor project, luminescence, BacTiterGlo (AID 1915); format: functional, organism-based;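 also: potency for reduction of bacterial viability or growth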
[3] = target: T4, RNA-binding protein pos-1 (Caenorhabditis elegans, UniProt G5EF15); assay: inhibitors of POS-1/mex-3 RNA binding, dose response, biochemical, fluorescence polarization (AID 1964);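 also: purified POS-1 fused to maltose binding protein made in E. coli; potency of compounds blocking POS-1 binding to fluorescent RNA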
T4 sequence (G5EF15 whole entry): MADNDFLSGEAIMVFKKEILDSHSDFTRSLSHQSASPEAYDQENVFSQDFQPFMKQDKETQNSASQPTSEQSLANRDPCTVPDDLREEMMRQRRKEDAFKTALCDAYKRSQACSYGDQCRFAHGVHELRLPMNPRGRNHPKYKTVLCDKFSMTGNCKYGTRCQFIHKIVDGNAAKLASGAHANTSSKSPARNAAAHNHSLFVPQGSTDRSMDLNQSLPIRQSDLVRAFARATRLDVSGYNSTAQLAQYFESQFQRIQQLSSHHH

[4] = system: Streptococcus sp. 'group A'; assay: growth inhibition of control SK(-) GAS strain, dose response, counter-screen for streptokinase expression inhibitor project, luminescence, kanamycin, BacTiterGlo, confirmation (AID 1900); format: functional, organism-based
Cytochrome P450 1A2 = target: T5, Cytochrome P450 1A2 (Homo sapiens, UniProt P05177);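 also: PubChem cytochrome P450 panel assay, CYP1A2 panel member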
T5 sequence (P05177 whole entry): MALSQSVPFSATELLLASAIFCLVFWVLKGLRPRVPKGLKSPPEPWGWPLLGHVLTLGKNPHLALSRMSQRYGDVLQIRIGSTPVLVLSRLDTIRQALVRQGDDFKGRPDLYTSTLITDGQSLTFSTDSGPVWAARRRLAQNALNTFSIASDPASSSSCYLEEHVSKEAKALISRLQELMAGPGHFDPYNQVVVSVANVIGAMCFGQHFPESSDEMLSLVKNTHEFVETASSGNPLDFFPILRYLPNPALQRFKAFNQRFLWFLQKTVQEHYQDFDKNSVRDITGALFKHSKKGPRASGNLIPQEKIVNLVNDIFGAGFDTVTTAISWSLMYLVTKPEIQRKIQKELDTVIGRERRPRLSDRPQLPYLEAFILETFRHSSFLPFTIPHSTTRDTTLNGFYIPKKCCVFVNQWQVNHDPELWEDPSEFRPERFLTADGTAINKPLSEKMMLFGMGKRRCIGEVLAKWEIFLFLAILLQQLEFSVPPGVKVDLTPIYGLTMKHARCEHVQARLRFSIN

Cytochrome P450 2C19 = Cytochrome P450 2C19 (Homo sapiens, UniProt P33261); assay: Cytochrome panel assay with activity outcomes. Panel member name: p450-cyp2c19 Compounds with AC50 equal or less than 10 uM are considered active; format: functional; details: read-out: AC50
Sequence of Cytochrome P450 2C19 (P33261 whole entry): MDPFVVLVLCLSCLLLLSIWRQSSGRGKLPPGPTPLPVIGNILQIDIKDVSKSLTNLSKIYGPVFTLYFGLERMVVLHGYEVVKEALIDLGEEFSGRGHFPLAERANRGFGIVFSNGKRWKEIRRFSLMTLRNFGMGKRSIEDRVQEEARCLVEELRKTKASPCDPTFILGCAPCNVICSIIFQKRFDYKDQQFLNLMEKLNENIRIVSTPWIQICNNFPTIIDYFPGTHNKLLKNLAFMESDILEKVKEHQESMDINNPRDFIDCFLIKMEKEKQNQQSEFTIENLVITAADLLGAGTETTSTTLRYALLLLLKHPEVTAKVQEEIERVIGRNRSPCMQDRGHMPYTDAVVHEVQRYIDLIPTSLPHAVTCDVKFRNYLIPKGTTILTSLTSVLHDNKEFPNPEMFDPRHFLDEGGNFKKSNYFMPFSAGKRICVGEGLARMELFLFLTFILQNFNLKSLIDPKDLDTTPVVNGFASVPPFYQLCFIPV

Sequence of Cytochrome P450 2C9 (P11712 whole entry): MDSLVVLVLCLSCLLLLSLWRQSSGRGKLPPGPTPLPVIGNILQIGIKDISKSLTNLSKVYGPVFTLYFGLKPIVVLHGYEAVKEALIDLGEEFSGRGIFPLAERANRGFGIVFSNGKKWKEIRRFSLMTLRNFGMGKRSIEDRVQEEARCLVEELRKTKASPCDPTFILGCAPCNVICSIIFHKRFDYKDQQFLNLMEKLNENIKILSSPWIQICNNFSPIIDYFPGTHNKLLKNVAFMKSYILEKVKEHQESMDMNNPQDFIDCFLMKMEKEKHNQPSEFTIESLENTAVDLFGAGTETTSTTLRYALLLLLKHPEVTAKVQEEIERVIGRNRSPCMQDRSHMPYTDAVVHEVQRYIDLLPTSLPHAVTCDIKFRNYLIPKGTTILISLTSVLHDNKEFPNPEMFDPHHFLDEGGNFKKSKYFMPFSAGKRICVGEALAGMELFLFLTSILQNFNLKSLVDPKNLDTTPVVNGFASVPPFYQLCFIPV
Sequence of Cytochrome P450 3A4 (P08684 whole entry): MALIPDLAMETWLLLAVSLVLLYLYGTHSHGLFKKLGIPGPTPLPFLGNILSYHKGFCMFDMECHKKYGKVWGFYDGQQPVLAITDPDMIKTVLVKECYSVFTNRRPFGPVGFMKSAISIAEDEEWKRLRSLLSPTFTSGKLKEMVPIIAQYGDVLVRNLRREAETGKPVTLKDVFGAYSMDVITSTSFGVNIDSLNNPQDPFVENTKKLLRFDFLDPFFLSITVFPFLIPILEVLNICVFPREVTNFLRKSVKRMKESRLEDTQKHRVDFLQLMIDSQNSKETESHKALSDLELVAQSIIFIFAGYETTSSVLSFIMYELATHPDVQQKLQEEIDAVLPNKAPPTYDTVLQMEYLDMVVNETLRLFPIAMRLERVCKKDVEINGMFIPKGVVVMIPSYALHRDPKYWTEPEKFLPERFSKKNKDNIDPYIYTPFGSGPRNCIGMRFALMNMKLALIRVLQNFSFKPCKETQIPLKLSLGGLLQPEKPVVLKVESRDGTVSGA

## O=c1c(-c2ccc(F)c(F)c2)nc2cncnc2n1C1CC1
Cytochrome P450 3A4
  AC50: 12.6 µM (inconclusive)

## Cc1ccc(C(c2nnnn2CC2CCCO2)N2CCN(C(=O)c3ccco3)CC2)cc1 (stereo unspecified)
Cytochrome P450 2C9
  AC50: 25.1 µM (inconclusive)

## COC(=O)c1cc2c(ccn2-c2ccc(F)cc2)n1Cc1ccc(C#N)cc1
[1]
  EC50: > 260 µM (inactive)

## Cc1cc(C)c(S(=O)(=O)N2CCCC(C(=O)NCCC3=CCCCC3)C2)c(C)c1 (stereo unspecified)
[1]
  EC50: > 260 µM (inactive)

## CC(C)N1CCc2c(sc(NC(=O)c3ccc(S(=O)(=O)N(C)CC4CCCO4)cc3)c2C(N)=O)C1 (stereo unspecified)
Streptokinase A
  EC50: > 150 µM (not active)
[2]
  EC50: > 300 µM (not active)
Streptococcus
  EC50: > 150 µM (not active)
[3]
  EC50: 203 µM (active)
[4]
  EC50: > 150 µM (not active)

## O=C(c1cc(C(F)(F)F)cc(C(F)(F)F)c1)N1CCC2(CC1)CN(Cc1ccncc1)C2
Cytochrome P450 3A4
  AC50: 15.8 µM (inconclusive)
Cytochrome P450 1A2
  AC50: 20 µM (inconclusive)

## CC(=C\c1ccco1)/C=C1/SC(=S)N(CC(=O)O)C1=O
[2]
  EC50: > 300 µM (not active)
[3]
  EC50: > 300 µM (not active)

## COc1ccc(C2Nc3ccccc3C(=O)N2Cc2ccco2)cc1COc1ccc(F)cc1 (stereo unspecified)
[1]
  EC50: > 260 µM (inactive)

## Cn1cc(-c2nc3cnc(N4CCNCC4)nc3n(-c3ccccc3)c2=O)c2ccccc21
Cytochrome P450 3A4
  AC50: 20 µM (inconclusive)

## COc1ccc(N2CCN(Cc3nc4c(c(=O)n(C)c(=O)n4C)n3CC(C)=O)CC2)cc1
Cytochrome P450 2C9
  AC50: 28.2 µM (inconclusive)

## COc1ccc(Nc2nnc(-c3ccc(N4CCOCC4)c([N+](=O)[O-])c3)c3ccccc23)cc1
Cytochrome P450 2C19
  AC50: 15.8 µM (inconclusive)
Cytochrome P450 3A4
  AC50: 7.94 µM (inconclusive)

## N#CCc1c(C#N)c(N)nc(N2CCN(S(=O)(=O)c3ccccc3F)CC2)c1C#N
[1]
  EC50: > 260 µM (inactive)

## Cc1c(Nc2cc(N3CCCC(C)C3)c3nonc3c2[N+](=O)[O-])c(=O)n(-c2ccccc2)n1C (stereo unspecified)
Cytochrome P450 2C9
  AC50: 2.51 µM (inconclusive)

## c1ccc(Nc2c(-c3ccco3)nc3ccccn23)cc1
[1]
  EC50: 151 µM (active)

## C[C@H]1O[C@@H](CC(=O)O)Cc2c(O)c3c(c(O)c21)C(=O)C=C(C1=CC(=O)c2c(O)c4c(c(O)c2C1=O)C[C@H](CC(=O)O)O[C@@H]4C)C3=O
Cytochrome P450 2C9
  AC50: 7.94 µM (inconclusive)

## O=C(O)CN1C(=O)/C(=C/c2ccccc2Br)Oc2ccccc21
[1]
  EC50: > 260 µM (inactive)

## COc1ccc(CCN2C(=O)NC(=O)/C(=C\Nc3ccc(NC(C)=O)cc3)C2=O)cc1OC
[2]
  EC50: > 300 µM (not active)
[3]
  EC50: > 300 µM (not active)

## C[C@H]1COC(=O)[C@H](Cc2ccccc2)NC(=O)[C@@H](C)COC(=O)[C@H](Cc2ccccc2)NC1=O
Cytochrome P450 3A4
  AC50: 3.98 µM (inconclusive)

## COc1ccc(S(=O)(=O)Nc2ccccc2C(F)(F)F)cc1
[1]
  EC50: > 260 µM (inactive)

## COC(=O)C1=C(C)N(c2ccc(Cl)cc2)/C(=C/c2cccs2)C1=O
[2]
  EC50: > 300 µM (not active)
[3]
  EC50: > 300 µM (not active)

## CCOC(=O)C1CCN(C(=O)c2ccc3c(Cl)c4c(nc3c2)CCCC4)CC1
[1]
  EC50: 15.8 µM (active)

## O=C(Nc1cccn2ncnc12)C(F)(F)F
[1]
  EC50: > 260 µM (inactive)

## CN1CC[C@@]2(CCCN(C(=O)c3ccncc3)C2)C1
Cytochrome P450 3A4
  AC50: 31.6 µM (inconclusive)

## CC1(C)Oc2cc(N)c([N+](=O)[O-])cc2O1
Cytochrome P450 2C9
  AC50: 35.5 µM (inconclusive)

## CCCCN1C(=O)NC(=O)/C(=C\NCCN2CCCCC2)C1=O
Cytochrome P450 3A4
  AC50: 20 µM (inconclusive)

## Cc1nn(-c2ccccc2)c2sc(C(=O)N(Cc3ccco3)C(C)C(=O)NC(C)(C)C)cc12 (stereo unspecified)
[1]
  EC50: > 260 µM (inactive)

## COc1ccc2c(c1)c(C(=O)CN1CCCCC1)c(C)n2C
[1]
  EC50: > 260 µM (inactive)

## Cc1nc2ncnn2c(C)c1CCC(=O)NCc1ccccc1
Cytochrome P450 3A4
  AC50: 17.8 µM (inconclusive)

## CN(C)c1ccc(CNC(=O)c2ccc(CNc3c(N4CCCCC4)c(=O)c3=O)cc2)cc1
[1]
  EC50: > 260 µM (inactive)

## O=C(c1[nH]o[n+](=O)c1C(=O)c1csc2ccccc12)c1csc2ccccc12
Cytochrome P450 3A4
  AC50: 3.16 µM (inconclusive)

## O=C(O)c1cc2cc(Cc3cccnc3)ccc2o1
Cytochrome P450 3A4
  AC50: 25.1 µM (inconclusive)

## Oc1ccc([C@@H]2CNCc3sccc32)cc1O
Cytochrome P450 3A4
  AC50: 15.8 µM (inconclusive)
